Data from PubChem BioAssay AID652032 (The Scripps Research Institute Molecular Screening Center, 2013).

Target: Kappa-type opioid receptor (Homo sapiens) (UniProt P41145)
Assay: OPRK1 antagonists, late-stage follow-up, cell-based, fluorescence, dose response (AID 652032)
Conditions: OPRK1-expressing cells, fluorescence antagonist read-out; cut-off not given, nearly all actives have IC50 up to about 8.7 µM

Chain of Kappa-type opioid receptor (Homo sapiens) (P41145 whole entry, looked up): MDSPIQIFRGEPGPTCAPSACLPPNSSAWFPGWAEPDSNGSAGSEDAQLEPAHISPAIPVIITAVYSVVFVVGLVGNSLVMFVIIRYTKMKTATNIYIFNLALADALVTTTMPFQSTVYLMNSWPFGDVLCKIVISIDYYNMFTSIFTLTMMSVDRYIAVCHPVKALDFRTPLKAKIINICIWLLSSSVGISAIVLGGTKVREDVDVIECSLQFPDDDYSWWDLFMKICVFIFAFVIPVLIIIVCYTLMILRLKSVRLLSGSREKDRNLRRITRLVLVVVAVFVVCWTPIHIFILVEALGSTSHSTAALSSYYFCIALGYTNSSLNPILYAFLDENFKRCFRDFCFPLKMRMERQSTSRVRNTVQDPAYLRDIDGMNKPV

IC50, active:
COC(=O)c1cc(I)cnc1N1CCC(NC2CCCCC2)CC1 0.079 µM, COC(=O)c1cc(Br)cnc1N1CCC(NCCO)CC1 9.2 µM, COC(=O)c1cc(NC(C)=O)cnc1N1CCC(NC2CCCCC2)CC1 0.628 µM, COC(=O)c1cc(Cl)cnc1N1CCC(NC2CCCCC2)CC1 0.159 µM, COC(=O)c1cc(Br)cnc1N1CCC(NC2CCC(C)CC2)CC1 (configuration not stated) 0.536 µM, COC(=O)c1cc(Br)cnc1N1CCC(NC2CCOCC2)CC1 0.621 µM, CC(C)OC(=O)c1cc(Br)cnc1N1CCC(NC2CCCCC2)CC1 0.398 µM, COC(=O)c1cc(Br)cnc1N1CCC(CNC2CCCCC2)CC1 3.5 µM, COC(=O)c1cc(Br)cnc1N1CCC(NC2CCCCC2)C1 (configuration not stated) 0.185 µM, COC(=O)c1cc(Br)cnc1N1CCC(NC2CCCCC2)CC1 0.133 µM, COC(=O)c1cc(Br)cnc1N1CCC(N)C(O)C1 (configuration not stated) 5.9 µM, COC(=O)c1cc(F)cnc1N1CCC(NC2CCCCC2)CC1 6.6 µM, CCOC(=O)c1cc(C(=O)OC)c(C)nc1N1CCC(NC2CCCCC2)CC1 2.6 µM, COC(=O)c1cc(Br)cnc1N1CCC(NC2CCCC2)CC1 0.12 µM, COC(=O)c1cc(Br)cnc1N1CCC(NC2CCCC(O)C2)CC1 (configuration not stated) 0.652 µM, COC(=O)c1cc(Br)cnc1N1CCC(NC2CCCCCC2)CC1 0.11 µM, COC(=O)c1cccnc1N1CCC(NC2CCCCC2)C(O)C1 (configuration not stated) 2.2 µM, O=C(O)c1cc(Br)cnc1N1CCC(NC2CCCCC2)CC1 5.2 µM, COC(=O)c1cc(Br)cnc1N1CCC(N(C)C2CCCCC2)CC1 2.7 µM, COC(=O)c1cc(Br)cnc1N1CCC(NC2CCCCC2OC)CC1 (configuration not stated) 0.267 µM, COC(=O)c1cc(Br)cnc1N1CCC(N[C@@H]2CCCC[C@H]2O)CC1 0.231 µM, COC(=O)c1cc(Br)cnc1N1CCC(N[C@H](C)C2CCCCC2)CC1 6.8 µM
